Patent US11149011B2, “Compounds and methods for IDO and TDO modulation, and indications therefor” (Plexxikon Inc., priority 2018, dated 2021)

Tests used:
[1] = target: T1, IDO1-expressing HEK293 cell clones (Homo sapiens, UniProt P14902); assay: Cell based kynurenine assay, IDO1-expressing HEK293 cell clones; settings: HEK293 cells, 24 hours of incubation, geometric mean; read-out: HEK293 IDO1 Kynurenine GMean IC50 (μM) (Cellular Assay)
T1 construct: expressed in transfected cells; host or cells: HEK293
T1 sequence (P14902 whole entry): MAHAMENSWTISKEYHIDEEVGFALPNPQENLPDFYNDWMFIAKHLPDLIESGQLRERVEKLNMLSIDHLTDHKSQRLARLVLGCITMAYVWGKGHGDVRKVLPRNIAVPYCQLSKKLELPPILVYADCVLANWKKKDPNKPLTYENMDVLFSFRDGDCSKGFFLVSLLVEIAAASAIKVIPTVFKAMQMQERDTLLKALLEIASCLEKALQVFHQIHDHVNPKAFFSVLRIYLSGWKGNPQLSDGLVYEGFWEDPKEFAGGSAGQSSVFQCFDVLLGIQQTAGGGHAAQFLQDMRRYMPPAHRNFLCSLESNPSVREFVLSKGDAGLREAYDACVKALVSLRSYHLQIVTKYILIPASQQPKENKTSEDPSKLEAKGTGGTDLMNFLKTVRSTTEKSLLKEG
Summary of the method: (§1)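 IC50s come from nonlinear regression of % inhibition of kynurenine in culture supernatant after 24 hours of compound exposure. Controls were 0.2% DMSO-treated cells and media alone. Cells were stable human IDO1- or TDO-expressing HEK293 clones (CMV promoter), plated at 2.5×10^4 per well.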

IDO1 = target: T2, IDO1 (Homo sapiens, UniProt P14902); assay: IDO enzymatic assay; assay type: biochemical; settings: geometric mean; read-out: IDO1 GMean: IC50 (μM) (Biochemical Assay)
T2 construct: His tag (N); made in house; host or cells: E. coli
T2 sequence (P14902 whole entry): as above
Summary of the method: (§2)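 Kynurenine formed after TCA hydrolysis (30 min, 50 °C) was quantified relative to full-reaction and no-enzyme controls, and IC50s were fitted. TDO reactions used 1 nM enzyme with 350 μM Trp and 0.4 μM methylene blue for 70 min; IDO reactions used 6 nM enzyme, 10 μM Trp, 5 μM methylene blue for 20 min; both at pH 6.5, room temperature.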

TDO = target: T3, TDO (Homo sapiens, UniProt P48775); assay: TDO enzymatic assay; settings: geometric mean; read-out: TDO GMean: IC50 (μM) (Biochemical Assay)
T3 construct: His tag (N); made in house; host or cells: E. coli
T3 sequence (P48775 whole entry): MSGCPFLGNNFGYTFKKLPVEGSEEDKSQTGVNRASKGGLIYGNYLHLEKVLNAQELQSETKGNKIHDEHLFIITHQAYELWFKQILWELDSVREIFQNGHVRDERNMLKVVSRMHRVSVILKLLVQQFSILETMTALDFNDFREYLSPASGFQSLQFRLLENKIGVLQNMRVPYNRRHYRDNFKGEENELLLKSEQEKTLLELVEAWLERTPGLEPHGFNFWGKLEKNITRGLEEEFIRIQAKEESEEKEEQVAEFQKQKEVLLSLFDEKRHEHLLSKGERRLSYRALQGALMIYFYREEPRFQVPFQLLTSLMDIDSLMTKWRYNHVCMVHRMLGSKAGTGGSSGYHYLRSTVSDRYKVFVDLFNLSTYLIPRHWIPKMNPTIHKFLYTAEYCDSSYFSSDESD
Summary of the method: as §2

[2] = target: T4, TDO-expressing HEK293 cell clones (Homo sapiens, UniProt P48775); assay: Cell based kynurenine assay, TDO-expressing HEK293 cell clones; settings: HEK293 cells, 24 hours of incubation, geometric mean; read-out: HEK293 TDO Kynurenine GMean IC50 (μM) (Cellular Assay)
T4 construct: expressed in transfected cells; host or cells: HEK293
T4 sequence (P48775 whole entry): as above
Summary of the method: as §1

IC50 [1] [µM] | IC50 (IDO1) [µM] | IC50 (TDO) [µM] | IC50 [2] [µM] | Compound
> 10 | 0.0001 to 10 | 0.0001 to 10 | 0.0001 to 10 | CC(C)(C1CCN(C(=O)CO)CC1)[C@@H](O)c1cc(Cl)cc2[nH]ncc12 [Compound P-0146, (R)-1-(4-(1-(6-chloro-1H-indazol-4-yl)-1-hydroxy-2-methylpropan-2-yl)piperidin-1-yl)-2-hydroxyethan-1-one]
> 10 | 0.0001 to 10 | 0.0001 to 10 | 0.0001 to 10 | CCS(=O)(=O)N1CCC(C(C)(C)[C@H](O)c2cc(Cl)cc3[nH]ncc23)CC1 [Compound P-0147, (S)-1-(6-chloro-1H-indazol-4-yl)-2-(1-(ethylsulfonyl)piperidin-4-yl)-2-methylpropan-1-ol]
> 10 | 0.0001 to 10 | 0.0001 to 10 | 0.0001 to 10 | CCS(=O)(=O)N1CCC(C(C)(C)[C@@H](O)c2cc(Cl)cc3[nH]ncc23)CC1 [Compound P-0148, (R)-1-(6-chloro-1H-indazol-4-yl)-2-(1-(ethylsulfonyl)piperidin-4-yl)-2-methylpropan-1-ol]

Continued, compound first:

Compound | IC50 [1] [µM] | IC50 (IDO1) [µM] | IC50 (TDO) [µM] | IC50 [2] [µM]
CC(C)(C1CCN(C(=O)CO)CC1)[C@H](O)c1cc(Cl)cc2[nH]ncc12 [Compound P-0145, (S)-1-(4-(1-(6-chloro-1H-indazol-4-yl)-1-hydroxy-2-methylpropan-2-yl)piperidin-1-yl)-2-hydroxyethan-1-one] | > 10 | 0.0001 to 10 | 0.0001 to 10 | 0.0001 to 10
CC(C)(C1CCN(C(=O)NOCC2CC2)CC1)[C@H](O)c1cc(Cl)cc2cn[nH]c12 [Compound P-0600, (S)-4-(1-(5-chloro-1H-indazol-7-yl)-1-hydroxy-2-methylpropan-2-yl)-N-(cyclopropylmethoxy)piperidine-1-carboxamide] | 0.0001 to 10 | 0.0001 to 10 | 0.0001 to 10 | 0.0001 to 10
